Reference: patent publication US9149445B2, “Inhibition of glycerol-3-phosphate acyltransferase (GPAT) and associated enzymes for treatment of viral infections” (THE TRUSTEES OF PRINCETON UNIVERSITY, priority 2009, dated 2015)

Tests used:
herpes simplex virus-1 = experiment: HSV-1 replication in serum-starved fibroblasts, infectious progeny by TCID50 assay; type: cell-based; conditions: multiplicity 0.01 TCID50 units/cell
Protocol: FIG. 4. Dose-dependent Inhibition of Herpes Simplex Virus-1 Replication by Inhibition of GPAT. Serum-starved fibroblasts were infected with herpes simplex virus-1 at a multiplicity of 0.01 TCID50 units/cell. After adsorption for 1 h, cultures were re-fed with serum-free medium containing the indicated concentrations of FAS 115 or with DMSO, the solvent used to dissolve FAS 115. Medium was harvested at the indicated times after infection and the production of infectious progeny was determined by TCID50 assay on fibroblasts.
Serum-starved fibroblasts were infected with herpes simplex virus-1 at a multiplicity of 0.01 TCID50 units/cell. After adsorption for 1 h, cultures were re-fed with serum-free medium containing concentrations of 2.5μ/ml, 5μ/ml and 10μ/ml of FAS 115 of FAS 115 or with DMSO, the solvent used to dissolve FAS 115. The medium was assayed daily for five days and the production of infectious progeny was determined by TCID50 assay on fibroblasts. […] At higher concentrations, the concentration of infections virus was reduced to 1 TCID50 unit/ml or less after 5 days. (FIG. 4).

HCMV = HCMV replication in serum-starved fibroblasts, infectious progeny by TCID50 assay; type: cell-based, human cytomegalovirus; conditions: multiplicity 0.1 TCID50 units per cell
Protocol: FIG. 2. Inhibition of HCMV Replication by Inhibition of GPAT. Serum-starved fibroblasts were infected with HCMV at a multiplicity of 0.1 TCID50 units per cell. After adsorption for 1 h, cultures were re-fed with serum-free medium containing concentrations of 2.5 μg/ml, 5 μg/ml and 10 μg/ml of FAS 115 or with DMSO, the solvent used to dissolve FAS 115. Medium was assayed at 0, 2, 4, 6, 8, 10 and 12 days after infection and the production of infectious progeny was determined by TCID50 assay on fibroblasts.
Serum-starved fibroblasts were infected with HCMV at a multiplicity of 0.1 TCID50 units per cell. After adsorption for 1 h, cultures were re-fed with serum-free medium containing concentrations of 2.5μ/ml, 5μ/ml and 10μ/ml of FAS 115 or with DMSO, the solvent used to dissolve FAS 115. The medium was assayed at 0, 2, 4, 6, 8, 10 and 12 days after infection and the production of infectious progeny was determined by TCID50 assay on fibroblasts. […] At the highest concentration, production of virus was not observed on day 12 after infection. (FIG. 2).
Cell Lines, Viral Stock. Low passage fibroblasts (passage 6-8) were cultured in a medium containing 10% fetal bovine serum. Bacterial artificial chromosome-derived HCMV AD 169 strain (BADWT) was propagated in human foreskin fibroblasts (HFFs), concentrated via a 20% sorbitol cushion, and resuspended as a stock in serum-free media.

GPAT = conditions: cited from earlier work
human cytomegalovirus = experiment: HCMV late protein expression by Western blot in infected fibroblasts; type: cell-based; conditions: intermediate and high concentrations (5μ/ml and 10μ/ml); 96 hours after infection; multiplicity 3.0 TCID50 units/cell; compared to tubulin and IE-1
Protocol: FIG. 3. Dose-dependent Inhibition of Human Cytomegalovirus Late Protein Expression by Inhibition of GPAT. Serum-starved fibroblasts were infected with human cytomegalovirus at a multiplicity of 3.0 TCID50 units/cell. After adsorption for 1 h, cultures were re-fed with serum-free medium containing the indicated concentrations of FAS 115 or with DMSO, the solvent used to dissolve FAS 115. Cells were harvested at 96 hours after infection and viral protein expression was assessed by Western blot. IE-1 is a viral protein expressed immediately early during infection. pp65 and pp28 are viral proteins expressed late during HCMV infection. Tubulin is a loading control.
Serum-starved fibroblasts were infected with human cytomegalovirus at a multiplicity of 3.0 TCID50 units/cell. After adsorption for 1 h, cultures were re-fed with serum-free medium containing 2.5μ/ml, 5μ/ml and 10μ/ml of FAS 115 or with DMSO, the solvent used to dissolve FAS 115. Cells were harvested at 96 hours after infection and viral protein expression was assessed by Western blot. IE-1 is a viral protein expressed during the immediate-early phase of infection. pp65 and pp28 are viral proteins expressed late during HCMV infection. Tubulin is a loading control. […] (FIG. 3).

[1] = system: panel of 140 protein kinases; conditions: cited from earlier work
mTOR = mTOR (Homo sapiens, UniProt P42345); conditions: selective mTOR inhibitors; cited from earlier work

With `CCCCCCCC[C@@]1(C)SC(=O)C=C1OC(=O)OCC` [FAS 115] the “concentration of infections virus” value (herpes simplex virus-1; higher concentrations (5μ/ml, 10μ/ml), after 5 days) was no more than 1 TCID50 unit/ml, the “viral titers lower than in untreated cells” value (herpes simplex virus-1; lowest FAS 115 concentration (2.5μ/ml)) was “about an order of magnitude” and the production of virus (HCMV; highest concentration (10μ/ml), day 12 after infection) was “not observed”. The viral titers reduced (HCMV; lowest FAS 115 concentration (2.5μ/ml), versus DMSO) was “about an order of magnitude”, the “inhibition of GPAT” value (GPAT) was “inhibits GPAT” and the “expression of pp28” value (human cytomegalovirus) was “noticeably reduced”. For the same compound, the “expression of pp65” value (human cytomegalovirus) was “noticeably reduced”.
For `Cc1c(C(=O)N2CCOc3ccc(-c4ccc(N)nc4)cc3C2)ccc(S(C)(=O)=O)c1F` [XL388], the IC50 [1] is listed as greater than 3000 nM.
In the case of `COC(=O)Nc1ccc(-c2nc(N3CCOCC3)c3cnn(C4CCN(C(=O)OC)CC4)c3n2)cc1` [WYE354], the IC50 (mTOR) is listed as 5 nM.
In the case of `c1cncc(CN2CCC(n3ncc4c(N5CCOCC5)nc(-c5ccc6[nH]ccc6c5)nc43)CC2)c1` [WAY-600], the IC50 (mTOR) is listed as 9 nM.
For `CNC(=O)Nc1ccc(-c2nc(N3CC4CCC(C3)O4)c3cnn(C4CCC5(CC4)OCCO5)c3n2)cc1` [WYE-125132], the IC50 (mTOR) is listed as 0.19 nM.
